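1) Cells in 96-well plates. 2) Compound, 48 h, 5 concentrations. 3) Linear interpolation between surrounding doses. 4) Unreached endpoint = highest concentration. At the TGI there is no net growth.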

The text below walks through data of PubChem BioAssay (NCI).

Some test systems named below: UACC-62 melanoma; CCRF-CEM leukemia; SF-539 CNS; KM12 colon; NCI/ADR-RES ovarian; HOP-62 NSCLC; HS 578T breast; COLO 205 colon; MALME-3M melanoma; HOP-92 NSCLC; HL-60(TB) leukemia; SK-OV-3 ovarian; OVCAR-5 ovarian; UACC-257 melanoma; SK-MEL-28 melanoma; EKVX NSCLC; SN12C renal.
Holding throughout (experiment): NCI tumour cell line growth inhibition, 48 h

For `CCn1c(-c2ccc(C)cc2)cs/c1=N\C(P(=O)(O)O)P(=O)(O)O`, the TGI in the assay with UACC-62 melanoma, in the assay with CCRF-CEM leukemia, in the assay on SF-539 CNS, in the assay on KM12 colon, in the assay with NCI/ADR-RES ovarian and in the assay on HOP-62 NSCLC was > 100 µM each time. For the same molecule, the TGI with HS 578T breast, with COLO 205 colon, with MALME-3M melanoma, in the assay on HOP-92 NSCLC, with HL-60(TB) leukemia and in the assay with SK-OV-3 ovarian was > 100 µM throughout. Further, the TGI in the assay with OVCAR-5 ovarian, with UACC-257 melanoma, with SK-MEL-28 melanoma and in the assay on EKVX NSCLC was > 100 µM in each case.
On to `CC(=O)c1c(-c2ccccc2)c(-c2ccc(OCCN(C)C)cc2)n2ccccc12`, for which the TGI in the assay on UACC-62 melanoma was 30.7 µM; in the assay on CCRF-CEM leukemia it was 61.1 µM; in the assay on SF-539 CNS, 27.1 µM; in the assay with KM12 colon, 26.5 µM; in the assay with NCI/ADR-RES ovarian it was 33.9 µM; with HS 578T breast, 42.2 µM. Further, the TGI in the assay with SN12C renal came to 29.4 µM; in the assay with COLO 205 colon, 27 µM; with MALME-3M melanoma it was 24.4 µM; in the assay with HOP-92 NSCLC it was 23.1 µM; with HL-60(TB) leukemia, 36.3 µM; in the assay with SK-OV-3 ovarian, 38.2 µM. Also, the TGI was > 100 µM in the assay on OVCAR-5 ovarian, 28.9 µM in the assay with UACC-257 melanoma, 28.6 µM with SK-MEL-28 melanoma and 43.8 µM in the assay on EKVX NSCLC.
For `CCOC(=O)C1(C(=O)OCC)CC(=O)[C@@]2(C1)OCC[C@H]1OC(=O)C[C@H]12`, the TGI with UACC-62 melanoma, in the assay with CCRF-CEM leukemia, with SF-539 CNS, in the assay on KM12 colon, with NCI/ADR-RES ovarian and in the assay on HOP-62 NSCLC was > 100 µM each time. In addition, the TGI in the assay on HS 578T breast, with SN12C renal, with COLO 205 colon, with MALME-3M melanoma, with HOP-92 NSCLC and in the assay on HL-60(TB) leukemia was > 100 µM throughout. For the same molecule, the TGI in the assay on OVCAR-5 ovarian, with UACC-257 melanoma, with SK-MEL-28 melanoma and in the assay with EKVX NSCLC was > 100 µM in each case.
Take `CC(=O)O[C@H]1C(=O)[C@@]2(C)[C@H]([C@H](OC(=O)c3ccccc3)[C@]3(O)C[C@H](OC(=O)[C@H](O)[C@@H](NC(=O)CC(C)C)c4ccccc4)C(C)=C1C3(C)C)[C@]1(OC(C)=O)CO[C@@H]1C[C@@H]2O`: the TGI is > 10 µM in the assay on UACC-62 melanoma; > 10 µM in the assay on CCRF-CEM leukemia; 0.196 µM with SF-539 CNS; > 10 µM with NCI/ADR-RES ovarian; > 10 µM with HOP-62 NSCLC; 0.00822 µM in the assay on HS 578T breast. For the same molecule, the TGI is > 10 µM in the assay on SN12C renal; 0.0112 µM in the assay with COLO 205 colon; > 10 µM in the assay with MALME-3M melanoma; 9.85 µM in the assay with HOP-92 NSCLC; 0.00899 µM in the assay with HL-60(TB) leukemia; > 10 µM with OVCAR-5 ovarian. For the same molecule, the TGI in the assay on UACC-257 melanoma, in the assay on SK-MEL-28 melanoma and with EKVX NSCLC was > 10 µM in each case.
In the case of `CSc1nc(O)c(/C=C2\C=Nc3ccccc32)[nH]1`, the TGI with UACC-62 melanoma, with CCRF-CEM leukemia, with SF-539 CNS, in the assay with NCI/ADR-RES ovarian, in the assay with HOP-62 NSCLC and in the assay with HS 578T breast was > 100 µM throughout. Besides, the TGI in the assay on SN12C renal is > 100 µM; in the assay on COLO 205 colon, > 100 µM; in the assay on MALME-3M melanoma, > 100 µM; in the assay on HOP-92 NSCLC it was > 100 µM; in the assay on HL-60(TB) leukemia it was 94.1 µM; with SK-OV-3 ovarian, > 100 µM. The TGI in the assay with OVCAR-5 ovarian, in the assay on UACC-257 melanoma and in the assay on SK-MEL-28 melanoma was > 100 µM throughout.
For `O=C(N/N=C\c1ccc([N+](=O)[O-])cc1)c1ccccc1Nc1ccccc1C(=O)N/N=C/c1ccc([N+](=O)[O-])cc1`, the TGI with UACC-62 melanoma, with CCRF-CEM leukemia, with KM12 colon, in the assay on NCI/ADR-RES ovarian, with HOP-62 NSCLC and in the assay on HS 578T breast was > 100 µM in each case. Also, the TGI with SN12C renal, with COLO 205 colon, in the assay with MALME-3M melanoma, in the assay with HOP-92 NSCLC, with HL-60(TB) leukemia and in the assay on SK-OV-3 ovarian was > 100 µM in each case. In addition, the TGI in the assay with OVCAR-5 ovarian, in the assay on UACC-257 melanoma, in the assay with SK-MEL-28 melanoma and in the assay with EKVX NSCLC was > 100 µM in each case.
Take `COc1cc2c3c(n(Cc4ccccc4)c(=O)c2cc1OC)-c1ccccc1C3=O`: the TGI in the assay with UACC-62 melanoma, in the assay with CCRF-CEM leukemia, in the assay on SF-539 CNS, in the assay on KM12 colon, in the assay with NCI/ADR-RES ovarian and in the assay with HOP-62 NSCLC was > 100 µM in each case. The TGI in the assay on HS 578T breast, in the assay with SN12C renal, in the assay on COLO 205 colon, in the assay on MALME-3M melanoma, in the assay on HOP-92 NSCLC and in the assay with HL-60(TB) leukemia was > 100 µM throughout. Moreover, the TGI in the assay with OVCAR-5 ovarian, with UACC-257 melanoma, with SK-MEL-28 melanoma and in the assay on EKVX NSCLC was > 100 µM throughout.
Take `CN(C)CCNC(=O)c1ccc(NCCCN(C)CCCNc2ccc(C(=O)NCCN(C)C)c3[nH]c4ccc([N+](=O)[O-])cc4c(=O)c23)c2c(=O)c3cc([N+](=O)[O-])ccc3[nH]c12`: the TGI was 0.622 µM in the assay on UACC-62 melanoma; 0.145 µM with CCRF-CEM leukemia; 3.58 µM in the assay with NCI/ADR-RES ovarian; 1.92 µM in the assay with HOP-62 NSCLC; > 100 µM in the assay on HS 578T breast; 0.668 µM with SN12C renal. For the same molecule, the TGI turned out to be 0.502 µM in the assay on COLO 205 colon; 1.37 µM in the assay with MALME-3M melanoma; 0.933 µM with HOP-92 NSCLC; 1.01 µM in the assay with HL-60(TB) leukemia; 1.35 µM in the assay with SK-OV-3 ovarian; 1.71 µM with OVCAR-5 ovarian. The TGI worked out at 1.62 µM with UACC-257 melanoma and 1.06 µM in the assay on SK-MEL-28 melanoma.
Regarding `COc1ccccc1N=N/C(=N/NC(=O)c1ccc(C)cc1)c1ccc(N(CCC#N)CCC#N)cc1OC`, the TGI is > 100 µM in the assay on UACC-62 melanoma; 40.9 µM with CCRF-CEM leukemia; 84.4 µM in the assay on KM12 colon; > 100 µM with NCI/ADR-RES ovarian; > 100 µM with HOP-62 NSCLC; > 100 µM in the assay on HS 578T breast. Moreover, the TGI with SN12C renal was 72.4 µM; with COLO 205 colon, 31.1 µM; with MALME-3M melanoma, 81.9 µM; in the assay on HOP-92 NSCLC, 95.1 µM; with HL-60(TB) leukemia, 26.5 µM; in the assay on SK-OV-3 ovarian it was > 100 µM. Also, the TGI with OVCAR-5 ovarian is > 100 µM; with UACC-257 melanoma, > 100 µM; in the assay on SK-MEL-28 melanoma, > 100 µM; in the assay on EKVX NSCLC, 69.2 µM.
